According to PMC5602538, “Assessment of the Drug Interaction Potential of Unconjugated and GalNAc3-Conjugated 2′-MOE-ASOs” (Molecular Therapy. Nucleic Acids, 2017):
{GalNAc3} = trishexylamino-C6 triantennary GalNAc conjugate; e = 2'-O-(2-methoxyethyl) (MOE); d = 2'-deoxy (DNA)

Experiments:
Assay type in all cases: in vitro ADME
human hepatocytes = assay: Hepatocyte uptake (cell pellet and supernatant concentrations by LC-UV/MS); conditions: for Cellular concentration in hepatocytes: test concentration of 1.00 μM
Description: A time-course experiment was conducted in triplicate for each concentration of test compound for 0, 30, 60, and 120 min incubations at 37°C with 5% CO2. At the end of each respective time point, the cell suspensions were centrifuged for 8 min at a speed of 50 × g, and the supernatant from each sample was collected. The cell pellets were washed by resuspension in Williams’ Medium E, followed by centrifugation at 50 × g for 8 min. The supernatant from the wash step was discarded and the remaining cell pellets were kept for analysis. Cell pellets and respective supernatants were measured for the presence of ASO by LC-MS.
Samples were analyzed using a tandem LC-UV/MS method. A total of 72 samples per ASO, corresponding to human hepatocyte cells and supernatant fractions, was assayed. Samples, curves, and controls (QCs) were aliquoted into 96-well plates and internal standard was added. Aliquots in 96-well plates were extracted via a liquid-liquid extraction using ammonium hydroxide and phenol:chloroform:isoamyl alcohol (25:24:1). The aqueous layer was then further processed via solid phase extraction (Phenomenex, Strata X SPE), and then dried down under nitrogen and reconstituted in 140 μL of water containing 100 μM EDTA. Samples were then injected onto an Agilent 6130 LC-MS system for analysis. Two curves were created for quantitation, one utilizing UV absorbance at 260 nm and an additional curve using single ion monitoring data from the mass spectrometer. The calibration range using the MS detector was 0.0640–641 μM with liver homogenate, as used to quantitate the concentration in hepatocyte pellet samples. A minimum signal-to-noise ratio of 5:1 was used to distinguish ASO peaks from background noise. […] Acceptance criteria for calibration and QC standards were set to 85%–115% of nominal values. For the MS, three QC levels were run in triplicate at 1.60 μM, 160 μM, and 481 μM and eight of the nine QCs passed. For the UV, three QC levels were run in triplicate at 160 μM, 481 μM, and 3,205 μM and all QCs passed. All samples were stored at −70°C ± 10°C upon receipt. Hepatocyte cell count conversion to μM liver weight equivalent was calculated by converting the number of hepatocytes per sample to the liver weight equivalent: [(0.1 × 10^6 cells per sample)/128 × 10^6 cells/g)] × […] = 0.78 mg, where 1 g of liver contains 128 × 10^6 cells/g. Supernatant concentrations are calculated assuming a 100% recovery and that 1 mL William E Medium is equal to 1 g. The calibration range for ASOs in transporter studies was 0.01–10 μM in 100 μL for RLT buffer and 0.005–10 μM in 100 μL for HBSS buffer.

OAT3 = tested on: T1, OAT3; assay: OAT3 substrate uptake study in MDCK cells; conditions: 10 μM ASO
T1 construct: expressed in transfected cells; host or cells: MDCK-II
Description: (§1) A 96-well cell culture plate containing a monolayer of MDCK-II cells grown on a permeable support and a corresponding receiver tray was used. The basolateral compartment of the culture plate and wells were washed with warm HBSS three times, with wells of the culture plate serving as the apical compartment. The wash was aspirated by adding 150 μL of 37°C HBSS to both compartments. Plates were incubated at 37°C with orbital shaking at 60 rpm for 15 min for OAT1, OAT3, OCT1, OCT2, OATP1B1, and OATP1B3 (±5 min). The pre-incubation buffer from both compartments was aspirated and 150 μL of the following was added to the basal compartment. For the probe substrate transport assay, HBSS in each well contained one of following probe substrates (positive control for transport), OCT1, 2 μM [^3H]-MPP^+; OCT2, 10 μM [^14C]-metformin; OAT1, 2 μM [^3H]-p-aminohippurate; OAT3, 10 μM [^3H]-p-aminohippurate; OATP1B1, 2 μM [^3H]-estradiol-17 β-D-glucuronide; and OATP1B3, 2 μM [^3H]-cholecystokinin octapeptide (CCK-8). […] Inhibition studies contained HBSS in each well, the probe substrate, and 100 μM of each test article, whereas substrate studies contained HBSS in each well and 10 μM of each test article. […] Samples containing probe substrate were added to 200 μL of scintillation fluid and counted on a 1450 Microbeta (PerkinElmer), whereas samples containing the test article were kept frozen. Test article concentrations, including control samples, were evaluated by an LC-MS method.
(§2) Signal to noise for probe substrates was calculated by dividing the uptake of the probe substrate in transporter-expressing cells by the uptake of probe substrate in control cells not expressing the transporter of interest. Percent inhibition was calculated by dividing the net-transporter-mediated substrate uptake in the presence of the test article or the reference inhibitor by the net-transporter-mediated substrate uptake in the absence of the inhibitor according to the equation: %inhibition=100−(100×(transporter-mediateduptake)withinhibitor/(transporter-mediateduptake)withoutinhibitor).

OCT2 = tested on: T2, OCT2; assay: OCT2 substrate uptake study in MDCK cells; conditions: 10 μM ASO
T2 construct: expressed in transfected cells; host or cells: MDCK-II
Description: as §1, §2

[1] = tested on: OAT1, OAT3, OCT1, OCT2, OATP1B1, OATP1B3, BCRP, P-gp, and BSEP; assay: Inhibition studies of major SLC and ABC transporters, all transporters evaluated; conditions: 100 μM ASO
Description: A 96-well cell culture plate containing a monolayer of MDCK-II cells grown on a permeable support and a corresponding receiver tray was used. The basolateral compartment of the culture plate and wells were washed with warm HBSS three times, with wells of the culture plate serving as the apical compartment. The wash was aspirated by adding 150 μL of 37°C HBSS to both compartments. Plates were incubated at 37°C with orbital shaking at 60 rpm for 15 min for OAT1, OAT3, OCT1, OCT2, OATP1B1, and OATP1B3 (±5 min). The pre-incubation buffer from both compartments was aspirated and 150 μL of the following was added to the basal compartment. For the probe substrate transport assay, HBSS in each well contained one of following probe substrates (positive control for transport), OCT1, 2 μM [^3H]-MPP^+; OCT2, 10 μM [^14C]-metformin; OAT1, 2 μM [^3H]-p-aminohippurate; OAT3, 10 μM [^3H]-p-aminohippurate; OATP1B1, 2 μM [^3H]-estradiol-17 β-D-glucuronide; and OATP1B3, 2 μM [^3H]-cholecystokinin octapeptide (CCK-8). […] Inhibition studies contained HBSS in each well, the probe substrate, and 100 μM of each test article, whereas substrate studies contained HBSS in each well and 10 μM of each test article. Plates were incubated at 37°C with orbital shaking at 60 rpm for 5 min. Both sides of the permeable support were washed four times with ice-cold PBS and 60 μL of cell extraction solution was added to each well. Plates were agitated for 15 min at 120 rpm, after which a 30-μL sample of the extract was collected. Samples containing probe substrate were added to 200 μL of scintillation fluid and counted on a 1450 Microbeta (PerkinElmer), whereas samples containing the test article were kept frozen. Test article concentrations, including control samples, were evaluated by an LC-MS method.
MDCK-MDR1 cells and MDCK-II cells transfected with BCRP were washed with HBSS at 37°C. Wells of the culture plate served as the apical compartment, and 150 μL of HBSS solutions was added to the apical wells. […]

Row | Substance | Average cellular concentration in hepatocytes (human hepatocytes; after 30-min incubation) [µM] | Average cellular concentration in hepatocytes (human hepatocytes; after 120-min incubation) [µM] | OAT3-mediated uptake relative to corresponding controls (OAT3) [fold] | OCT2-mediated uptake relative to corresponding controls (OCT2) [fold] | Inhibitor of BCRP, P-gp, OAT1, OAT3, OCT1, OCT2, OATP1B1, OATP1B3, or BSEP (conclusion) [1] | Cellular concentration in hepatocytes (human hepatocytes; after 120 min of incubation) [µM] | Cellular concentration in hepatocytes (human hepatocytes; time points 0–60 min)
1 | ISIS 304801: 20-mer (5-10-5) 2′-MOE gapmer PS backbone antisense inhibitor of apoC-III, sequence AGCTTCTTGTCCAGCTTTAT (sugars from the 5' end e5 d10 e5, all phosphorothioate, methylation of C not given here) | 56.3 | 140 | < 2 | < 2 | not considered inhibitors | – | –
2 | ISIS 420915: 20-mer 2′-MOE gapmer PS backbone antisense inhibitor of transthyretin, sequence TCTTGGTTACATGAAATCCC (all phosphorothioate, sugars by position and methylation of C not given here; 2'-MOE gapmer) | 52.2 | 106 | < 2 | < 2 | not considered inhibitors | – | –
3 | ISIS 681257: 20-mer 2′-MOE gapmer PS/PO mixed backbone ASO conjugated to 5′-trishexylamino GalNAc3, targets Lp(a), sequence TGCTCCGTTGGTGCTTGTTC (5' {GalNAc3}, sugars by position and backbone not given here; 2'-MOE gapmer with mixed PS/PO backbone) | 14.0 | 50.6 | < 2 | < 2 | not considered inhibitors | 0.626 | below the level of quantitation
